Test results from US20070166367A1, “Adept or gdept producing acetaldehyde” (priority 2004, published 2007).
Read-outs that look alike come from different tables or passages of the source.

Tests used:
[1] = tested on: Daudi lymphoma cells; assay: acetaldehyde combined with Cisplatin in vitro; type: cell-based
From the text: The results shown are the number of live cells at each time point shown as a % of the number of cells at the start of the expt (ie 100% at time 0 hrs).

[2] = tested on: CMT-64; assay: in vitro acetaldehyde and cisplatin toxicity assay; type: cell-based; conditions: FIG. 2
Protocol: (§1) Standard tissue culture techniques were used to maintain Hela, Daudi, Jurkat, CMT-64 cells in flasks in DMEM+10% FCS in a 37° C. incubator.
(§2) Cell lines subcloned into 25-cm^2 flasks and incubated in media containing dilutions of acetaldehyde, cisplatin or both. Flasks remained sealed during incubation and the media and acetaldehyde/cisplatin were replaced daily. Viable cell counts were made using Trypan blue exclusion and a standard haemocytometer.

[3] = tested on: Daudi; assay: in vitro acetaldehyde and cisplatin toxicity assay; type: cell-based; conditions: higher cell density, 3 days exposure, FIG. 2
Protocol: as §1, §2

[4] = tested on: Ad-ADH Hela cells; assay: Ad-ADH ethanol cytotoxicity assay; type: cell-based; conditions: seeded at 5×10^5 on Day 0, day 2, FIG. 4
Protocol: (§3) Cells were placed into 6 well plates at 5×10^6 per well. After overnight incubation, the cells were washed twice in PBS then incubated with virus (Hela MOI 100, CMT-64 MOI 1000) at 37° C. for 1 hr in 1 ml of serum free media. Following addition of 3 mls more of tissue culture medium the cells were incubated overnight, assayed for ADH activity and used for experiments as below.

[5] = tested on: Ad-ADH CMT-64 cells; assay: Ad-ADH ethanol cytotoxicity assay; type: cell-based; conditions: for numbers of cells: seeded at 5×10^5 on Day 0, day 2, FIG. 4; for total cell number as % of the starting number: ethanol
Protocol: as §3

[6] = in vivo; cited from earlier work
[7] = chronic exposure to ethanol (4%), +12 weeks; cited from earlier work
[8] = tested on: CMT-64 cells; conditions: ethanol IP for several days, particularly on Day 6, FIG. 5
Protocol: CMT-64 cells are injected s-c into mice and tumour growth allowed to proceed.
Virus described above is introduced into the CMT-64 cells.
Alcohol (ethanol) is injected IP for several days.
Tumour dimensions are monitored thereafter.

[9] = tested on: wild type CMT-64 cells; conditions: ethanol 2 g/kg IP days 0-4 (group 3)
Protocol: (§4) The animal experiment was approved by the Cancer Research UK animal use and safety committee and the Home Office before initiation. On the day prior to injection, 6×10^6 CMT-64 cells were transduced with the Ad-ADH virus in vitro, then on Day 0 adult C57B/6 mice received s-c injections in the flank of 5×10^5 Ad-ADH CMT-64 cells (groups 1 and 2) or mock infected CMT-64 cells (groups 3 and 4) suspended in 100 uL of PBS. On days 0-4 groups 1 and 3 were injected with 500 ul of 12% ethanol (2 g/kg) solution IP and groups 2 and 4 received 500 uL of water IP, there were 6 mice in each group. Tumour volume was estimated twice weekly using the formula: volume=(length×width×width)×(3.142/6).
(§5) Tumour size was measure on Days 6, 10 and 13; the results are shown as the mean and SD from 6 mice per group.

[10] = tested on: Ad-ADH CMT-64 cells
Protocol: as §4, §5

[11] = cited from earlier work

N.N.[Cl][Pt][Cl] [cisplatin, Cisplatin]
number of live cells as a % of the number of cells at the start ([1]; Cisplatin at 30 μM, 6 hr): 147%
number of live cells as a % of the number of cells at the start ([1]; Cisplatin at 30 μM, 18 hr): 122%
number of live cells as a % of the number of cells at the start ([1]; Cisplatin at 30 μM, 21 hr): 76%
number of live cells as a % of the number of cells at the start ([1]; Cisplatin at 30 μM, 25 hr): 82%
number of live cells as a % of the number of cells at the start ([1]; Cisplatin at 30 μM, 42 hr): 36%
number of live cells as a % of the number of cells at the start ([1]; repeated experiment, +25 hours): 63%
cell number as % of starting number [2]: 80%
cell number as % of starting number [3]: 21%
numbers of cells [4]: 3.2×10^5
numbers of cells [5]: 3.75×10^5

CCO [ethanol]
well tolerated levels [6]: 500 to 2500 mg/L
cardiac toxicity [7]: severe myocardial damage
tumour growth [8]: significant inhibition of growth
numbers of cells [4]: 6.2×10^5
cell number as % of non-ethanol exposed controls ([5]; 2 days ethanol exposure): 30%
number of cells ([5]; ethanol 20 mM, day 2, FIG. 3): 3.7×10^5
total cell number as % of the starting number ([5]; day 2): 74%
total cell number as % of the starting number ([5]; day 4): 36%
number of cells ([5]; extended ethanol exposure, day 4): 1.8×10^5
numbers of cells [5]: 3.5×10^5
mean tumour volumes ([9]; day 6): 0.1645 cm^3
mean tumour volumes ([9]; day 13): 0.514 cm^3
tumour size of one mouse ([10]; Day 10 and Day 23, no further increase): 0.058 cm3
median size as % of the water treated controls ([10]; day 6): 30%
median size as % of the water treated controls ([10]; day 13): 42%
mean size of the tumours ([10]; ethanol 2 g/kg IP days 0-4, day 6): 0.036 cm^3
mean size of the tumours ([10]; ethanol 2 g/kg IP days 0-4, day 13): 0.18 cm3
time until blood ethanol levels fell below the limit of detection ([11]; IP ethanol injections of 3.7-3.8 g/kg): 6 to 7 h
rate of ethanol metabolism in mice relative to humans ([11]; mouse, in vivo): 5 times

Cc1cn[nH]c1 [4-MP, 4-methylpyrazole]
effect on ethanol mediated growth reduction ([5]; 4-MP 10 uMol): blocking of this effect
